Experimental data as given in ChEMBL document CHEMBL3576813, “Cucurbitacin D Is a Disruptor of the HSP90 Chaperone Machinery” (J Nat Prod, 2015).
Calls of active or inactive are those of the source. The calls are words filed in the database; no cut-off is given here.

Assays:
MCF7 [1] = test: Cytotoxicity against human MCF7 cells assessed as growth inhibition after 72 hrs by MTS/PMS assay; assay type: functional, cell-based; conditions: MCF7, 72 h
[2] = molecular target: T1, Heat shock protein HSP90 (Homo sapiens) (UniProt P07900+P08238); test: Inhibition of HSP90 in human MCF7 cells assessed as pAkt degradation after 24 hrs by Western blot analysis; assay type: cell-based
[3] = molecular target: T1, Heat shock protein HSP90 (Homo sapiens); test: Inhibition of HSP90 in human MCF7 cells assessed as Her2 degradation after 24 hrs by Western blot analysis; assay type: cell-based
[4] = molecular target: T1, Heat shock protein HSP90 (Homo sapiens); test: Inhibition of HSP90 in human MCF7 cells assessed as Cdk6 degradation after 24 hrs by Western blot analysis; assay type: cell-based
[5] = molecular target: T1, Heat shock protein HSP90 (Homo sapiens); test: Inhibition of HSP90 in human MCF7 cells assessed as Raf degradation after 24 hrs by Western blot analysis; assay type: cell-based
MCF7 [6] = test: Change in Cdc37 expression in human MCF7 cells at 0.01 to 10 uM after 24 hrs by Western blot analysis; assay type: functional, cell-based
MCF7 [7] = test: Change in p23 expression in human MCF7 cells at 0.01 to 10 uM after 24 hrs by Western blot analysis; assay type: functional, cell-based
[8] = molecular target: T1, Heat shock protein HSP90 (Homo sapiens); test: Inhibition of HSP90 in human MCF7 cells assessed as disruption of interaction with Cdc37 at 0.5 times to 5 times IC50 after 24 hrs by co-immunoprecipitation assay; assay type: cell-based
[9] = molecular target: T1, Heat shock protein HSP90 (Homo sapiens); test: Inhibition of HSP90 in human MCF7 cells assessed as disruption of interaction with p23 at 0.5 times to 5 times IC50 after 24 hrs by co-immunoprecipitation assay; assay type: cell-based
[10] = molecular target: T1, Heat shock protein HSP90 (Homo sapiens); test: Inhibition of HSP90 in human MCF7 cells assessed as induction of heat shock response-mediated HSP27 production at 5 times to 10 times IC50 after 24 hrs by Western blot analysis relative to vehicle-treated control; assay type: cell-based
[11] = molecular target: T1, Heat shock protein HSP90 (Homo sapiens); test: Inhibition of HSP90 in human MCF7 cells assessed as pAkt degradation at 0.5 times to 5 times IC50 after 24 hrs by Western blot analysis; assay type: cell-based
[12] = molecular target: T1, Heat shock protein HSP90 (Homo sapiens); test: Inhibition of HSP90 in human MCF7 cells assessed as Her2 degradation at 0.5 times to 5 times IC50 after 24 hrs by Western blot analysis; assay type: cell-based
[13] = molecular target: T1, Heat shock protein HSP90 (Homo sapiens); test: Inhibition of HSP90 in human MCF7 cells assessed as Cdk6 degradation at 0.5 times to 5 times IC50 after 24 hrs by Western blot analysis; assay type: cell-based
[14] = molecular target: T1, Heat shock protein HSP90 (Homo sapiens); test: Inhibition of HSP90 in human MCF7 cells assessed as Raf degradation at 0.5 times to 5 times IC50 after 24 hrs by Western blot analysis; assay type: cell-based
[15] = molecular target: T1, Heat shock protein HSP90 (Homo sapiens); test: Inhibition of HSP90 in human MCF7 cells assessed as induction of heat shock response-mediated HSP90 production at 0.5 times to 5 times IC50 after 24 hrs by Western blot analysis; assay type: cell-based
[16] = molecular target: T1, Heat shock protein HSP90 (Homo sapiens); test: Inhibition of HSP90 in human MCF7 cells assessed as induction of heat shock response-mediated HSP70 production at 0.5 times to 5 times IC50 after 24 hrs by Western blot analysis; assay type: cell-based
[17] = molecular target: T1, Heat shock protein HSP90 (Homo sapiens); test: Inhibition of HSP90 in human MCF7 cells assessed as induction of heat shock response-mediated HSP27 production at 0.5 times to 5 times IC50 after 24 hrs by Western blot analysis; assay type: cell-based
MCF7 [18] = test: Change in Cdc37 expression in human MCF7 cells at 5 times IC50 after 24 hrs by Western blot analysis; assay type: functional, cell-based
MCF7 [19] = test: Change in p23 expression in human MCF7 cells at 5 times IC50 after 24 hrs by Western blot analysis; assay type: functional, cell-based
[20] = molecular target: T2, Prostaglandin E synthase 3 (Homo sapiens) (UniProt Q15185); test: Binding affinity to p23 in human MCF7 cells assessed as inhibition of interaction with HSP90 at 5 times IC50 after 24 hrs by co-immunoprecipitation assay; assay type: cell-based
T2 sequence (whole entry): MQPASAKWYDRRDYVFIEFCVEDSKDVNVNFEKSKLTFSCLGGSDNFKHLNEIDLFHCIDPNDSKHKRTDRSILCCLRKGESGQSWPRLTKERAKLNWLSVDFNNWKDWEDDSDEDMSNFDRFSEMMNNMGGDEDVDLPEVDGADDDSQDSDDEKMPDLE

SMILES	IC50 (MCF7 [1]; read-out: IC50)	inhibition [10]	inhibition [11]	inhibition [12]	inhibition [13]	inhibition [14]	inhibition [15]	inhibition [16]	inhibition [17]	Activity (MCF7 [18])	Activity (MCF7 [19])	also measured
CC(C)(O)/C=C/C(=O)[C@](C)(O)[C@H]1[C@H](O)C[C@@]2(C)[C@@H]3CC=C4[C@@H](CC(=O)[C@H](O)C4(C)C)[C@]3(C)C(=O)C[C@]12C	718 nM	Active										inhibition [2]: Dose-dependent effect; inhibition [3]: Dose-dependent effect; inhibition [4]: Dose-dependent effect; inhibition [5]: Dose-dependent effect; Activity (MCF7 [6]): inactive; Activity (MCF7 [7]): inactive; inhibition [8]: inactive; inhibition [9]: inactive
CC(C)(O)CCC(=O)[C@@](C)(O)[C@H]1[C@H](O)C[C@@]2(C)[C@@H]3CC=C4[C@@H](C[C@H](O)C(=O)C4(C)C)[C@]3(C)C(=O)C[C@]12C	5130 nM		inactive	inactive	inactive	inactive	inactive	inactive	inactive			
CC(=O)OC(C)(C)CCC(=O)[C@](C)(O)[C@H]1[C@H](O)C[C@@]2(C)[C@@H]3CC=C4[C@@H](C[C@H](O)C(=O)C4(C)C)[C@]3(C)C(=O)C[C@]12C [23,24-DIHYDROCUCURBITACIN B]	46300 nM		inactive	inactive	inactive	inactive	inactive	inactive	inactive			
CC1=C(O)C(=O)C=C2C1=CC=C1[C@@]2(C)CC[C@@]2(C)[C@@H]3C[C@](C)(C(=O)O)CC[C@]3(C)CC[C@]12C [CELASTROL]	153 nM									Active	Active	
CC(=O)OC(C)(C)/C=C/C(=O)[C@](C)(O)[C@H]1[C@H](O)C[C@@]2(C)[C@@H]3CC=C4[C@H](C[C@H](O)C(=O)C4(C)C)[C@]3(C)C(=O)C[C@]12C [CUCURBITACIN B]	41.3 nM		inactive	inactive	inactive	inactive	inactive	inactive	inactive			
CC(C)(O)/C=C/C(=O)[C@](C)(O)[C@H]1[C@H](O)C[C@@]2(C)[C@@H]3CC=C4[C@@H](C[C@H](O)C(=O)C4(C)C)[C@]3(C)C(=O)C[C@]12C [CUCURBITACIN D]	598 nM	inactive										inhibition [2]: Dose-dependent effect; inhibition [3]: Dose-dependent effect; inhibition [4]: Dose-dependent effect; inhibition [5]: Dose-dependent effect; Activity (MCF7 [6]): inactive; Activity (MCF7 [7]): inactive
CC(=O)OC(C)(C)/C=C/C(=O)[C@](C)(O)[C@H]1[C@H](O)C[C@@]2(C)[C@@H]3CC=C4[C@@H](C=C(O)C(=O)C4(C)C)[C@]3(C)C(=O)C[C@]12C [CUCURBITACIN E]			inactive	inactive	inactive	inactive	inactive	inactive	inactive			IC50 (MCF7 [1]): 55 nM
CC(C)(O)/C=C/C(=O)[C@](C)(O)[C@H]1[C@H](O)C[C@@]2(C)[C@@H]3CC=C4[C@@H](C=C(O)C(=O)C4(C)C)[C@]3(C)C(=O)C[C@]12C [CUCURBITACIN I]	60.7 nM		inactive	inactive	inactive	inactive	inactive	inactive	inactive			
CC(=O)O[C@@H]1C[C@H]2C(C)(C)C(=O)C=C[C@]2(C)[C@H]2CC[C@@]3(C)[C@H](c4ccoc4)OC(=O)[C@H]4O[C@]43[C@@]21C [GEDUNIN]	10900 nM	inactive								Active	Active	inhibition [20]: Active
COC1=C2C[C@@H](C)C[C@H](OC)[C@H](O)[C@@H](C)/C=C(\C)[C@H](OC(N)=O)[C@@H](OC)/C=C\C=C(/C)C(=O)NC(=CC1=O)C2=O [GELDANAMYCIN]	42.7 nM									Active	Active	
